In publication PMC6024615, “Effect of Biliary Drainage on the Toxicity and Toxicokinetics of Amanita exitialis in Beagles” (Toxins, 2018):
Read-outs that look alike come from different tables or passages of the source.

What was measured:
[1] = cited from earlier work
Protocol: The difference in detectable time in the urine can be explained by the low level of internal exposure (amatoxins in the blood). […] The daily amounts of peptide toxins excreted in urine in beagles without biliary drainage(mg). Time after α-Amanitin β-Amanitin Phallacidin ingestion 20 mg/kg 60 mg/kg 20 mg/kg 60 mg/kg 20 mg/kg 60 mg/kg group group group group group group 0-1d 0.0379 0.0593 0.0156 0.0251 0.0035 0.0088 (97.9%) (92.8%) (99.9%) (94.7%) (94.2%) (76%) 1-2d 0.0388 0.0618 0.01567 0.0255 0.0037 0.0110 (99.995%) (97.5%) (100%) (96.2%) (100%) (93%) 2-3d 0.0002 0.0626 0 0.0260 0 0.0115 (100%) (99.4%) (100%) (98.2%) (100%) (97.3%) 3-4d 0 0.063 ...

[2] = Peptide toxins in the urine of beagles with biliary drainage; format: in vivo, beagle dogs; conditions: for Total (accumulated) amount excreted in urine / percentage of total urine excretion, Total: 0–4 days
Protocol: The study was approved by National Institute of Occupational Health and Poison Control review board for animal experiments. Twenty-four male beagles (age, 8–10 months; weight, 10 ± 1 kg) were obtained from Beijing Institute of Xieerxin Biology Resource (Beijing, China). They were randomly divided into four groups of six animals each: control, biliary drainage, and 20 and 60 mg/kg with biliary drainage groups. The biliary drainage operation was conducted in all groups barring the control group. The dogs were dressed in homemade underwear, coats, and Elizabeth circles for a week to ensure pre-experimental acclimatization (Figure S8a–c). After determining the baseline values for biochemical indicators, the dogs were fasted for 24 h but received water ad libitum. They were anesthetized by intravenous administration of pentobarbital sodium (3%, 1 mL/kg) during the surgery. A temperature of 38–39 °C was maintained with a warming mat. After skin preservation and sterilization, the abdominal cavity was opened through the central abdomen. The abdomen was explored and blunt dissection of the common bile duct was performed (Figure S8d). The common bile duct and its branches were ligated from the intestinal side. A 7.0-Fr drainage catheter (COOK, Bloomington, IN, USA) was percutaneously inserted into the gallbladder, and a medical drainage bag was connected to the drainage catheter coming out of the abdominal cavity. Each opened layer, including the peritoneum, abdominal wall muscle, and skin, was closed with suture. The operative incision was protected with sterile gauze and a bandage, and the dogs were dressed in homemade underwear, coats, and Elizabeth circles. The drainage bag was placed in the pocket of the coat (Figure S8e). After the anesthetic wore off, the dogs were placed in cages, and food and water were provided ad libitum. The operative incision was sterilized with iodophor twice a day until stitches were removed six days after surgery. The drainage bag was replaced every day. On the eighth day after surgery, the 20 and 60 mg/kg with biliary drainage groups were orally administered a lyophilized powder of Amanita exitialis in starch capsules. In control and bile drainage group, the beagle dogs were fed with empty capsules. Immediately after dosing, the animals were placed in their cages, and food and water were provided ad libitum. Dogs were sacrificed with an overdose of sodium pentobarbital at the end of the experiment. All procedures were performed according to the ethical standards of the National Institutes of Health Guide for Animal Welfare and approved by the Institutional Animal Care and Use Committee (EAWE-2017-005).
Peptide toxins in blood and urine samples were analyzed as described previously. Bile samples from Days 0–1, Days 1–2, Days 2–3, and Days 3–4 were collected and stored in medical drainage bags and the bile volume was recorded. Plasma and urine samples were stored at 2–8 °C until analysis for peptide toxins.
UPLC and MS/MS parameters were as described in our previous study. The limit of detection and limit of quantitation of each toxin in the bile were 0.03 mg/kg and 0.5 mg/kg, respectively.

[3] = 20 mg/kg with biliary drainage group
[4] = 60 mg/kg with biliary drainage group
[5] = 1–2 days, 20 mg/kg with biliary drainage group
[6] = 1–2 days, 60 mg/kg with biliary drainage group
[7] = 2–3 days, 20 mg/kg with biliary drainage group
[8] = 2–3 days, 60 mg/kg with biliary drainage group
[9] = 3-4d, 20 mg/kg with biliary drainage group
[10] = 3-4d, 60 mg/kg with biliary drainage group
[11] = 3–4 days, 20 mg/kg with biliary drainage group
[12] = 3–4 days, 60 mg/kg with biliary drainage group

For `CC[C@H](C)[C@@H]1NC(=O)CNC(=O)[C@@H]2Cc3c([nH]c4cc(O)ccc34)[S@+]([O-])C[C@H](NC(=O)CNC1=O)C(=O)N[C@@H](CC(=O)O)C(=O)N1C[C@H](O)C[C@H]1C(=O)N[C@@H]([C@@H](C)[C@@H](O)CO)C(=O)N2` [β-amanitin], the “daily amount excreted in urine, without biliary drainage” value ([1]; 0-1d, 20 mg/kg group) is listed as 0.0156 mg, the “percentage in parentheses, urine, without biliary drainage” value ([1]; 0-1d, 20 mg/kg group) is listed as 99.9% and the “daily amount excreted in urine, without biliary drainage” value ([1]; 0-1d, 60 mg/kg group) is listed as 0.0251 mg. The “percentage in parentheses, urine, without biliary drainage” value ([1]; 0-1d, 60 mg/kg group) was 94.7%, the “Accumulative amount excreted in urine, without biliary drainage” value ([1]; 20 mg/kg group) was 0.0157 mg and the “percentage in parentheses, Accumulative amount, urine, without biliary drainage” value ([1]; 20 mg/kg group) was 100%. For the same molecule, the “Accumulative amount excreted in urine, without biliary drainage” value ([1]; 20 mg/kg group, listed as β-Amanitin) was 0.01567 mg, the “percentage in parentheses, Accumulative amount, urine, without biliary drainage” value ([1]; 60 mg/kg group) was 100% and the “percentage in parentheses, urine, without biliary drainage” value ([1]; 1-2d, 20 mg/kg group) was 100%. The “daily amount excreted in urine, without biliary drainage” value ([1]; 1-2d, 60 mg/kg group) was 0.0255 mg, the “percentage in parentheses, urine, without biliary drainage” value ([1]; 1-2d, 60 mg/kg group) was 96.2% and the “daily amount excreted in urine, without biliary drainage” value ([1]; 2-3d, 20 mg/kg group) was 0 mg. For the same molecule, the “percentage in parentheses, urine, without biliary drainage” value ([1]; 2-3d, 20 mg/kg group) was 100%, the “daily amount excreted in urine, without biliary drainage” value ([1]; 2-3d, 60 mg/kg group) was 0.0260 mg and the “percentage in parentheses, urine, without biliary drainage” value ([1]; 2-3d, 60 mg/kg group) was 98.2%. For the same molecule, the “daily amount excreted in urine, without biliary drainage” value ([1]; 3-4d, 20 mg/kg group) was 0 mg, the “percentage in parentheses, urine, without biliary drainage” value ([1]; 3-4d, 20 mg/kg group) was 100% and the “daily amount excreted in urine, without biliary drainage” value ([1]; 3-4d, 60 mg/kg group) was 0.0264 mg. For the same molecule, the “percentage in parentheses, urine, without biliary drainage” value ([1]; 3-4d, 60 mg/kg group) was 100%, the “detection rate of peptide toxins in urine” value (shortened to “detection rate”) ([2]; 0-1 d, 20 mg/kg with biliary drainage group) was 100% and the “detection rate” value ([2]; 0-1 d, 60 mg/kg with biliary drainage group) was 100%. The “daily amount excreted in urine” value ([2]; 0–1 days, 20 mg/kg with biliary drainage group) was 0.0050 mg, the “percentage of total urine excretion excreted daily” value ([2]; 0–1 days, 20 mg/kg with biliary drainage group, 20 mg/kg) was “more than 90%” and the “percentage of total urine excretion excreted daily” value ([2]; 0–1 days, 20 mg/kg with biliary drainage group, listed as β-Amanitin, 20 mg/kg) was 93.9%. The “daily amount excreted in urine” value ([2]; 0–1 days, 60 mg/kg with biliary drainage group) was 0.0065 mg, the “percentage of total urine excretion excreted daily” value ([2]; 0–1 days, 60 mg/kg with biliary drainage group, 60 mg/kg) was “more than 90%” and the “percentage of total urine excretion excreted daily” value ([2]; 0–1 days, 60 mg/kg with biliary drainage group, listed as β-Amanitin, 60 mg/kg) was 91.4%. For the same molecule, the “Total (accumulated) amount excreted in urine” value [2, 3] was 0.0055 mg, the “percentage of total urine excretion, Total” value [2, 3] was 100% and the “Total (accumulated) amount excreted in urine” value [2, 4] was 0.0068 mg. The “percentage of total urine excretion, Total” value [2, 4] was 100%, the “time within which toxin was detected in urine” value [2, 3] was “two” and the “time within which toxin was detected in urine” value [2, 4] was “two”. The “detection rate” value ([2]; 1-2 d, 20 mg/kg with biliary drainage group) was 50%, the “detection rate” value ([2]; 1-2 d, 60 mg/kg with biliary drainage group) was 83% and the “daily amount excreted in urine” value [2, 5] was 0.0005 mg. The “percentage of total urine excretion excreted daily” value [2, 5] was 6.1%, the “daily amount excreted in urine” value [2, 6] was 0.0003 mg and the “percentage of total urine excretion excreted daily” value [2, 6] was 8.6%. For the same molecule, the “detection rate” value ([2]; 2-3 d, 20 mg/kg with biliary drainage group) was 0%, the “toxin content in urine” value ([2]; 2-3d, 20 mg/kg with biliary drainage group, mean ± SD) was 0 µg/L and the “detection rate” value ([2]; 2-3 d, 60 mg/kg with biliary drainage group) was 0%. The “toxin content in urine” value ([2]; 2-3d, 60 mg/kg with biliary drainage group, mean ± SD) was 0 µg/L, the “daily amount excreted in urine” value [2, 7] was 0(0%) mg and the “percentage of total urine excretion excreted daily” value [2, 7] was 0(0%). The “daily amount excreted in urine” value [2, 8] was 0(0%) mg, the “percentage of total urine excretion excreted daily” value [2, 8] was 0(0%) and the “detection rate” value [2, 9] was 0%. For the same molecule, the “toxin content in urine” value [2, 9] was 0 µg/L, the “detection rate” value [2, 10] was 0% and the “toxin content in urine” value [2, 10] was 0 µg/L. For the same molecule, the “daily amount excreted in urine” value [2, 11] was 0(0%) mg, the “percentage of total urine excretion excreted daily” value [2, 11] was 0(0%) and the “daily amount excreted in urine” value [2, 12] was 0(0%) mg. The “percentage of total urine excretion excreted daily” value [2, 12] was 0(0%) and the “share of total urine excretion in the 0–2-day urine” value ([2]; beagles with biliary drainage, both dose groups) was “more than 95%”.
